Results on 4 compounds are retold here after paper PMC4638363, “Linear Interaction Energy Based Prediction of Cytochrome P450 1A2 Binding Affinities with Reliability Estimation” (PLoS ONE, 2015).

For series [1], the target named is T1, human CYP 1A2 (Homo sapiens, UniProt P05177).
T1 sequence (P05177 1-516): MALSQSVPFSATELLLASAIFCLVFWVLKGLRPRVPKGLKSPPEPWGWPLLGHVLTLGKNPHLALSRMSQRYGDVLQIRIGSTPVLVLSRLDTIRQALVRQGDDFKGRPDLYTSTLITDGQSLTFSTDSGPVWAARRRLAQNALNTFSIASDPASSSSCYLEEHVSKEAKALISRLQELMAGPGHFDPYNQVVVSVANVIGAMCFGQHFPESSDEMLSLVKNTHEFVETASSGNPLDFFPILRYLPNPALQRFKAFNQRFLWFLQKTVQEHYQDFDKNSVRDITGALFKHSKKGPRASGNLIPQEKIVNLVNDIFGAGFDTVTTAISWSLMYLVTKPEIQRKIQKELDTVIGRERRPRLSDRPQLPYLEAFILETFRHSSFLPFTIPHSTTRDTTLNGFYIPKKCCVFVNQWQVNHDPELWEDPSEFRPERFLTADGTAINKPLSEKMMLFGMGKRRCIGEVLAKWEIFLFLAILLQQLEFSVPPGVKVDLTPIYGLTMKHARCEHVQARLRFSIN

Series [2] has as its system CYP 1A2. The conditions noted are these: cited from earlier work.
Series [3] deals with CYP 1A2. The settings on record: cited from earlier work. This is another data set of the same source.
In series [4] the target is T1, human CYP 1A2. The experiment in a line: in-house CYP 1A2 inhibition assay with 7-methoxyresorufin as substrate (resorufin fluorescence).
For series [5], the system named is CYP 1A2. Put plainly: Source 1: Bayer HealthCare screen, phenacetin as substrate probe on pooled human liver microsomes.
The target of series [6] is T1, human CYP 1A2. The conditions noted are these: for ΔG bind (inhouse): human, 10 min, pH 7.4.
The subject of series [7] is recombinant CYP 1A2. The conditions noted are these: human.
In series [8] the test system is recombinant CYP 1A2. The settings on record: recombinant enzyme; cited from earlier work.
For series [9], the system named is CYP 1A2. The conditions noted are these: human.

Each structure is given as a SMILES string. Where two headings read alike, the source gives them in different places.

On to `Cc1cccc(Nc2ccccc2C(=O)O)c1C` [Compound 1, Mefenamic Acid], for which, at human CYP 1A2 [1] (training set), the “Residual (ΔGbind^Obs—ΔGbind^Calc)” value was 1.03 kcal/mol. The IC50 with CYP 1A2 [2] (read-out: IC 50 (lit), Source 1, pooled human liver microsomes, phenacetin probe) is 14 µM; against human CYP 1A2 [4], 19 ± 7 µM. For the same compound, in the series with CYP 1A2 [3] (literature), the Reported inhibition mechanism result is “Competitive^60”. The same compound came in with a ΔΔG bind at human CYP 1A2 [4] (difference in ΔG bind between literature and in-house determined values) of -0.19 kcal/mol. Also, at human CYP 1A2 [4] (from in-house IC50 via Cheng-Prusoff and RTln(Ki)), the “ΔG bind (inhouse)” value is -6.91 ± 0.239 kcal/mol. Moreover, in the series with CYP 1A2 [5] (from literature IC50, Source 1 (Ref. 57)), the “ΔG bind (lit)” value was -7.1 kcal/mol. For the same compound, the “ΔGbind^Obs” value in the series with CYP 1A2 [5] (training set, from literature IC50, Source 1) is -7.1 kcal/mol.
For the compound `Oc1ccc2ccccc2c1` [Compound 10, 2-naphthol], on human CYP 1A2 [6], the ΔΔG bind is 0.813 kcal/mol and the “ΔG bind (inhouse)” value is -7.79 ± 0.17 kcal/mol. In addition, in the series with recombinant CYP 1A2 [7], the “ΔG bind (lit)” value is -6.96 ± 0.048 kcal/mol and the “ΔGbind^Obs” value was -6.96 kcal/mol. The “Residual (ΔGbind^Obs–ΔG bind ^Calc), error in prediction” value at human CYP 1A2 [1] is -1.55 kcal/mol. Also, the IC50 in the series on recombinant CYP 1A2 [8] was 17 ± 1.5 µM. In addition, at human CYP 1A2 [4], the IC50 was determined as 4.4 ± 1.2 µM.
For the compound `COc1ccc2nc3ccc(=O)cc-3oc2c1` [7-Methoxyresorufin], at human CYP 1A2 [6], the K m was 2.5 µM.
With `Nc1c2c(nc3ccccc13)CCCC2` [Compound 2, Tacrine], on human CYP 1A2 [6], the ΔΔG bind stood at 0.502 kcal/mol and the “ΔG bind (inhouse)” value was -8.17 ± 0.287 kcal/mol. For the same compound, in the series on CYP 1A2 [9], the “ΔG bind (lit)” value was -7.67 kcal/mol and the “ΔGbind^Obs” value was -7.7 kcal/mol. In addition, the “Residual (ΔGbind^Obs—ΔGbind^Calc)” value at human CYP 1A2 [1] is -0.669 kcal/mol. In the series with CYP 1A2 [2] (microsomes), the IC50 was 5.2 µM. In addition, the Reported inhibition mechanism entry in the series on CYP 1A2 [3] is recorded as “Substrate^61”. The IC50 against human CYP 1A2 [4] was 2.3 ± 1 µM.
